Key:
[1] = molecular target: Adrenergic receptor alpha-2 (Rattus norvegicus) (UniProt P22086+P19328+P22909); experiment: Displacement of [3H]RX 821002 from rat brain alpha 2 receptor at 10 uM after 60 mins by radiometric scintillation analysis relative to control
[2] = molecular target: Small conductance calcium-activated potassium channel (Rattus norvegicus) (UniProt P70604+P70606+P70605); experiment: Displacement of [125I]apamin from rat brain SKCa at 10 uM after 60 mins by radiometric scintillation analysis relative to control
[3] = molecular target: Neuropeptide Y receptor type 1 (Homo sapiens) (UniProt P25929); experiment: Displacement of [125I]peptide YY from human Y1 receptor at 10 uM after 120 mins by radiometric scintillation analysis relative to control
[4] = molecular target: Histamine H2 receptor (Homo sapiens) (UniProt P25021); experiment: Displacement of [125I]APT from recombinant human H2 histamine receptor at 10 uM after 120 mins by radiometric scintillation counting analysis relative to control
[5] = molecular target: D(2) dopamine receptor (Homo sapiens) (UniProt P14416); experiment: Displacement of [3H]methyl-spiperone from recombinant human D2S dopamine receptor at 10 uM after 60 mins by radiometric scintillation analysis relative to control
[6] = MRT in CD-1 mouse plasma at 5 mg/kg, ip measured up to 480 mins by LC/ESI-MS/MS analysis; format: ADME, organism-based
[7] = molecular target: Neurotensin receptor type 1 (Homo sapiens) (UniProt P30989); experiment: Displacement of [125I]Tyr3-neurotensin from human NSTR1 receptor at 10 uM after 60 mins by radiometric scintillation analysis relative to control
[8] = molecular target: Beta-1 adrenergic receptor (Homo sapiens) (UniProt P08588); experiment: Displacement of [3H](-)CGP 12177 from recombinant human beta1 receptor at 10 uM after 60 mins by radiometric scintillation analysis relative to control
[9] = molecular target: Type-1 angiotensin II receptor (Homo sapiens) (UniProt P30556); experiment: Displacement of [125I][Sar1,Ile8]-AT-II from recombinant human AT1 receptor at 10 uM after 120 mins by radiometric scintillation analysis relative to control
[10] = Mutagenicity in Salmonella typhimurium TA98 at 5 ug/plate preincubated for 20 mins followed by addition of top agar and measured after 48 hrs by Ames test; format: toxicity; conditions: salmonella enterica subsp. enterica serovar typhimurium
[11] = Cmax in CD-1 mouse brain at 5 mg/kg, ip measured up to 480 mins by LC/ESI-MS/MS analysis; format: ADME, organism-based; parameters: dose 5 mg/kg, route intraperitoneal
[12] = molecular target: Sodium-dependent serotonin transporter (Homo sapiens) (UniProt P31645); experiment: Displacement of [3H]imipramine recombinant human 5-HT transporter at 10 uM after 60 mins by radiometric scintillation analysis relative to control
[13] = molecular target: 5-hydroxytryptamine receptor 7 (Homo sapiens) (UniProt P34969); experiment: Displacement of [3H]LSD from recombinant human 5-HT7 receptor at 10 uM after 120 mins by radiometric scintillation analysis relative to control
[14] = AUC (0 to t) in CD-1 mouse plasma at 5 mg/kg, ip measured up to 480 mins by LC/ESI-MS/MS analysis; format: ADME, organism-based; parameters: dose 5 mg/kg, time < 8 hr, route intraperitoneal
[15] = molecular target: 5-hydroxytryptamine receptor 5A (Homo sapiens) (UniProt P47898); experiment: Displacement of [3H]LSD from recombinant human 5-HT5A receptor at 10 uM after 120 mins by radiometric scintillation analysis relative to control
[16] = Mutagenicity in Salmonella typhimurium TA100 at 5 ug/plate preincubated for 20 mins followed by addition of top agar and measured after 48 hrs by Ames test; format: toxicity; conditions: salmonella enterica subsp. enterica serovar typhimurium
[17] = Terminal half life in CD-1 mouse brain at 5 mg/kg, ip measured up to 480 mins by LC/ESI-MS/MS analysis; format: ADME, organism-based; conditions: read-out: beta t1/2
[18] = molecular target: 5-hydroxytryptamine receptor 2A (Homo sapiens, UniProt P28223); experiment: Displacement of [3H]ketanserin from recombinant human 5-HT2A receptor at 10 uM after 60 mins by radiometric scintillation analysis relative to control
[19] = molecular target: 5-hydroxytryptamine receptor 1B (Homo sapiens) (UniProt P28222); experiment: Displacement of [3H]GR125743 from recombinant human 5-HT1B receptor at 10 uM after 60 mins by radiometric scintillation analysis relative to control
[20] = Mutagenicity in Salmonella typhimurium TA102 at 250 ug/plate preincubated for 20 mins followed by addition of top agar and measured after 48 hrs by Ames test; format: toxicity; conditions: salmonella enterica subsp. enterica serovar typhimurium
[21] = molecular target: Delta-type opioid receptor (Homo sapiens) (UniProt P41143); experiment: Displacement of [3H]DADLE from recombinant human DOR receptor at 10 uM after 60 mins by radiometric scintillation analysis relative to control
[22] = molecular target: Serotonin 3 (5-HT3) receptor (Homo sapiens) (UniProt P46098+A5X5Y0+O95264+Q70Z44+Q8WXA8); experiment: Displacement of [3H]BRL 43694 from recombinant human 5-HT3 receptor at 10 uM after 120 mins by radiometric scintillation analysis relative to control; format: protein-complex assay
[23] = molecular target: Adenosine receptor A3 (Homo sapiens) (UniProt P0DMS8); experiment: Displacement of [125I]AB-MECA from recombinant human A3 receptor at 10 uM after 120 mins by radiometric scintillation analysis relative to control
[24] = molecular target: Muscarinic acetylcholine receptor M2 (Homo sapiens) (UniProt P08172); experiment: Displacement of [3H]AF-DX 384 from recombinant human M2 receptor at 10 uM after 60 mins by radiometric scintillation analysis relative to control
[25] = molecular target: Muscarinic acetylcholine receptor M3 (Homo sapiens) (UniProt P20309); experiment: Displacement of [3H]4-DAMP from recombinant human M3 receptor at 10 uM after 60 mins by radiometric scintillation analysis relative to control
[26] = molecular target: Somatostatin receptor type 4 (Mus musculus) (UniProt P49660); experiment: Displacement of [125I]Tyr11-somatostatin-14 from mouse SST4 receptor at 10 uM after 120 mins by radiometric scintillation analysis relative to control
[27] = molecular target: D(1A) dopamine receptor (Homo sapiens) (UniProt P21728); experiment: Displacement of [3H]SCH 23390 from recombinant human D1 dopamine receptor at 10 uM after 60 mins by radiometric scintillation analysis relative to control
[28] = molecular target: Vasopressin V1a receptor (Homo sapiens) (UniProt P37288); experiment: Displacement of [3H]AVP recombinant human V1A receptor at 10 uM after 60 mins by radiometric scintillation analysis relative to control
[29] = molecular target: Sodium-dependent noradrenaline transporter (Homo sapiens) (UniProt P23975); experiment: Displacement of [3H]nisoxetine recombinant human norepinephrine transporter at 10 uM after 120 mins by radiometric scintillation analysis relative to control
[30] = Drug metabolism in mouse liver microsomes assessed as metabolite formation by measuring retention time at 20 uM after 30 to 60 mins in presence of NADP by UPLC/MS analysis; format: ADME, Microsome
[31] = molecular target: Substance-K receptor (Homo sapiens) (UniProt P21452); experiment: Displacement of [125I]NKA from recombinant human NK2 receptor at 10 uM after 60 mins by radiometric scintillation analysis relative to control

Sequence of Muscarinic acetylcholine receptor M3 (Homo sapiens) (P20309 whole entry, looked up): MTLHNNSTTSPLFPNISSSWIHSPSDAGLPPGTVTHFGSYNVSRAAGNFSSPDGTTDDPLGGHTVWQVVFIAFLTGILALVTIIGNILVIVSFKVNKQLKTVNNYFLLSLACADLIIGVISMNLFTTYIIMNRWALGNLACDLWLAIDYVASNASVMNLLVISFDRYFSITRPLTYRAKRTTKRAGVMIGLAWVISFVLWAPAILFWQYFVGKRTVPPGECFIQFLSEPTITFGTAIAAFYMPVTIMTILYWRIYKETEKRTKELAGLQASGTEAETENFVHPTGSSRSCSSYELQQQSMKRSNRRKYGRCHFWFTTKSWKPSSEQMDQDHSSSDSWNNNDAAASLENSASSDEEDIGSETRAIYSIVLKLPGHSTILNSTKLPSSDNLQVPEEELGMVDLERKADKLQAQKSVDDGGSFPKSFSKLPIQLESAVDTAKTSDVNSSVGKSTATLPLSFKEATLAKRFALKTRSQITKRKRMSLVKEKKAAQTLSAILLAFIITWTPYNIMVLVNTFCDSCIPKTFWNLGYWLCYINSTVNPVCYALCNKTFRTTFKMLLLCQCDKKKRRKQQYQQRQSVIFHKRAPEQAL
Sequence of 5-hydroxytryptamine receptor 5A (Homo sapiens) (P47898 whole entry): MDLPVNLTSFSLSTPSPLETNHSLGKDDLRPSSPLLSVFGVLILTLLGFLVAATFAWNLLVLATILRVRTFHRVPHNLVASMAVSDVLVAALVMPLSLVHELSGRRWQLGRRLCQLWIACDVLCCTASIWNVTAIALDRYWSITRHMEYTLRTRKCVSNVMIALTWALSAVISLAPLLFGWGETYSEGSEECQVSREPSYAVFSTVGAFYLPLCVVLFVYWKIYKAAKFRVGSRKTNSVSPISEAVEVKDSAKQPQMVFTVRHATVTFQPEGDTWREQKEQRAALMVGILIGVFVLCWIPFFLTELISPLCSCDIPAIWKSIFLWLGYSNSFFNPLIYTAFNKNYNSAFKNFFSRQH
Sequence of D(1A) dopamine receptor (Homo sapiens) (P21728 whole entry): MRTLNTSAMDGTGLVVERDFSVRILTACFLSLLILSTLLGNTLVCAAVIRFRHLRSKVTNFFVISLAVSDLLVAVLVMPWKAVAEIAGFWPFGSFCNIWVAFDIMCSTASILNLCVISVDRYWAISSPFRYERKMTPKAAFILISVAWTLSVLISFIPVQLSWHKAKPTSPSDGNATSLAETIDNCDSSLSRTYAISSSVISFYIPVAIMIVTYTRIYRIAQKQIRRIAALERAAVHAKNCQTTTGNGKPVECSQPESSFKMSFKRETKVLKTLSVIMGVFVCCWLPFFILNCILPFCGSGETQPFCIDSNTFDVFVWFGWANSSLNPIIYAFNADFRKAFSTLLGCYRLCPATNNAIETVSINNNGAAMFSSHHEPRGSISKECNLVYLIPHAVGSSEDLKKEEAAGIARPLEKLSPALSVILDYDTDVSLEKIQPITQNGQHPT
Sequence of Vasopressin V1a receptor (Homo sapiens) (P37288 whole entry, looked up): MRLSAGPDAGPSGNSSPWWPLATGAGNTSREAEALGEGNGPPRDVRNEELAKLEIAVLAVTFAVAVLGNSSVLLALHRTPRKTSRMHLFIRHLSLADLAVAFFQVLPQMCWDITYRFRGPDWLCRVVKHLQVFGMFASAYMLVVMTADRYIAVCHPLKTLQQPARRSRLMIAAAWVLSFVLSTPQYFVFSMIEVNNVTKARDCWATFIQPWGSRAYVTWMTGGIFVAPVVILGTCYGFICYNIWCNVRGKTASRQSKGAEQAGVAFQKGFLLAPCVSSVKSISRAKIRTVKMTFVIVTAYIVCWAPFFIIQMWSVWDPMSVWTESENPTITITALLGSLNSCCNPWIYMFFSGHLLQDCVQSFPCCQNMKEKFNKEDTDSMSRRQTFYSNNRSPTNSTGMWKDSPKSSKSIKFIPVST
Sequence of 5-hydroxytryptamine receptor 2A (P28223 whole entry): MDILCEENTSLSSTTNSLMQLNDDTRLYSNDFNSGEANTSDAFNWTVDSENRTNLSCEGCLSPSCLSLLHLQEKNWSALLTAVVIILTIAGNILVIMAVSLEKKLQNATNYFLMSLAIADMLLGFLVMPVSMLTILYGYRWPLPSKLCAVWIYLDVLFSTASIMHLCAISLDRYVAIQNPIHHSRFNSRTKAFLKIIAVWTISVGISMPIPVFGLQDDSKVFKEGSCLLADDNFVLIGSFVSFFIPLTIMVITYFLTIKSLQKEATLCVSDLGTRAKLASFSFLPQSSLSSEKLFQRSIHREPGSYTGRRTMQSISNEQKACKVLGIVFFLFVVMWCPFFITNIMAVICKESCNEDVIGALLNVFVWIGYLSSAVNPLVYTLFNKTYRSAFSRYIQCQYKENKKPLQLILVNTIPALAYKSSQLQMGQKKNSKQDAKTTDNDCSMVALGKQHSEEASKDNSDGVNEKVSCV
Sequence of Beta-1 adrenergic receptor (Homo sapiens) (P08588 whole entry, looked up): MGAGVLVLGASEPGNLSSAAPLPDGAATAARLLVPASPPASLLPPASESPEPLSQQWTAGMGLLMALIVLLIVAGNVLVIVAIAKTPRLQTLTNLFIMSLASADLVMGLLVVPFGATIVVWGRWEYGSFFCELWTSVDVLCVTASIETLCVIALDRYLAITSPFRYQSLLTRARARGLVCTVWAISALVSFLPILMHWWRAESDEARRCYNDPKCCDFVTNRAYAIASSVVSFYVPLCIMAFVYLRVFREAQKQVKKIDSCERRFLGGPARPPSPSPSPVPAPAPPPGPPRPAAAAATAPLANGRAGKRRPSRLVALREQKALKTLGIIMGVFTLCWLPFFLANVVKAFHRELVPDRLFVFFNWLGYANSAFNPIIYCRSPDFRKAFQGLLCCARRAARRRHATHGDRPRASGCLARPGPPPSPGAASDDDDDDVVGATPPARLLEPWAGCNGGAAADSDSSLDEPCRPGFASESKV
Sequence of Adenosine receptor A3 (Homo sapiens) (P0DMS8 whole entry): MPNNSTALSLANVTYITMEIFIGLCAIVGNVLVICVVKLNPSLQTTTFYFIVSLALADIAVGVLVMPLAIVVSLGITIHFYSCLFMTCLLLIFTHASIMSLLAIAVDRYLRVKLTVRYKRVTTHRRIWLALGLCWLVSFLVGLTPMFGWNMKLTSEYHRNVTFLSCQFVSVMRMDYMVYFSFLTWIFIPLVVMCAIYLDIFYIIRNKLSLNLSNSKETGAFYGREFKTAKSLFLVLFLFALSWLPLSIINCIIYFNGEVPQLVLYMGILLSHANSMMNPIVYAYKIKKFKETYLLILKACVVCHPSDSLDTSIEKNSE
Sequence of Sodium-dependent serotonin transporter (Homo sapiens) (P31645 whole entry, looked up): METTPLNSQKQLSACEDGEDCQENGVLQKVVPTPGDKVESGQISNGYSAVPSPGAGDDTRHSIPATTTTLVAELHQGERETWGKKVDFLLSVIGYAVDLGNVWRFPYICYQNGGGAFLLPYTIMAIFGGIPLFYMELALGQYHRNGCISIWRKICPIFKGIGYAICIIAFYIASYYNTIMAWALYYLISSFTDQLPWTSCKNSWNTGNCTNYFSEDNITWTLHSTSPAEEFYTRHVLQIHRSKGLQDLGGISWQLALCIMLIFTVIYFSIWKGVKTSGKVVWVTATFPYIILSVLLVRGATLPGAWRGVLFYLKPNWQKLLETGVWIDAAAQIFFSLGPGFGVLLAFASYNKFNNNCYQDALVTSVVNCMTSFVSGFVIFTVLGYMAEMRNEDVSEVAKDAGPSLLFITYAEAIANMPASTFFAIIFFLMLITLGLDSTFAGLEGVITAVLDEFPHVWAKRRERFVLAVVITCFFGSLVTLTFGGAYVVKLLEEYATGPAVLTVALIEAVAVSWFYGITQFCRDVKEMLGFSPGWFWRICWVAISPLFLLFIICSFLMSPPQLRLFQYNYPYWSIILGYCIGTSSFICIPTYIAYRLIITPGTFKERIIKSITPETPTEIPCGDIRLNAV
Sequence of D(2) dopamine receptor (Homo sapiens) (P14416 whole entry): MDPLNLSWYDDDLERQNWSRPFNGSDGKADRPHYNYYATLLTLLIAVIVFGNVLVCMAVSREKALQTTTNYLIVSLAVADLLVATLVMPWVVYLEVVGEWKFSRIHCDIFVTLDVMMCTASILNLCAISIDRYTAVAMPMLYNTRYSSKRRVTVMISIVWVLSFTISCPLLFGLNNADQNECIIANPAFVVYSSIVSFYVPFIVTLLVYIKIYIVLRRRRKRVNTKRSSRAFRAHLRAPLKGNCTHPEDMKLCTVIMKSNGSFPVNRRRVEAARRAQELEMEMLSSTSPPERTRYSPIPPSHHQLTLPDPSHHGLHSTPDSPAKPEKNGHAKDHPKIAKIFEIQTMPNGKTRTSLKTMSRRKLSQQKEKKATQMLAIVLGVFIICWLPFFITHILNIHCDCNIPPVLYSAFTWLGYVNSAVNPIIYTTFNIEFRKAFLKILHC
Sequence of Type-1 angiotensin II receptor (Homo sapiens) (P30556 whole entry): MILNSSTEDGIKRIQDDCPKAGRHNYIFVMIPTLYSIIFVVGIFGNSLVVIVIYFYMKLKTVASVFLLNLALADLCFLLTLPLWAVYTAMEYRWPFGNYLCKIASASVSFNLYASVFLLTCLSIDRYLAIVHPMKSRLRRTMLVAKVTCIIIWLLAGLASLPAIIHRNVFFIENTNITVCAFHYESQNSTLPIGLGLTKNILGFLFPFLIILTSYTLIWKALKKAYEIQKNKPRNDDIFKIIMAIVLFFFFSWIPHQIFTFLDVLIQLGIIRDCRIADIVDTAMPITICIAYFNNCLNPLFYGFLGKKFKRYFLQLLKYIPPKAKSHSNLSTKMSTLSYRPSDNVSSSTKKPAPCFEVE
Sequence of Neurotensin receptor type 1 (Homo sapiens) (P30989 whole entry): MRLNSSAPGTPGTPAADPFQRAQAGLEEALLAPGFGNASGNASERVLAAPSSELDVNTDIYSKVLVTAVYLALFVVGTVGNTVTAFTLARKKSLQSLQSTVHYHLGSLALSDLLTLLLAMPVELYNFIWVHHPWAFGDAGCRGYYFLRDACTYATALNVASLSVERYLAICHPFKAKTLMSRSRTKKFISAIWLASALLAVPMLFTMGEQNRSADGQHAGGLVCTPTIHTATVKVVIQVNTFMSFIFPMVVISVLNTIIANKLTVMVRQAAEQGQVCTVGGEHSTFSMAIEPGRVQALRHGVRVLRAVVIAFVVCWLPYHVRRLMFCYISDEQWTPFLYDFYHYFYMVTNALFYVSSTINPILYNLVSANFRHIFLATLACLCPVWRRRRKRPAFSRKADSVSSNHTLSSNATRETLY

`Cl.Cl.O=c1c2cc(Cl)ccc2oc2ccc(CN3CCN(CCOCCO)CC3)cc12` showed an inhibition [1] of 9.2%, an inhibition [2] of 8.5% and an inhibition [3] of -9.5%. The inhibition [4] was 10.3%, the inhibition [5] was 27.4% and the MRT [6] was 2.59 h. The inhibition [7] was -3.5%, the inhibition [8] was 2.3% and the inhibition [9] was 8.4%. For the same compound, the Activity_index [10] was 1.03, the Cmax [11] was 18600 ng/mL and the inhibition [12] was 24.8%. For the same compound, the inhibition [13] was 5.3%, the AUC(0-t) at 8 h [14] was 5490 ng·h/mL and the inhibition [15] was 13.8%. The Activity_index [16] was 0.66, the half-life [17] was 2.88 h and the inhibition [18] was 62.8%. For the same compound, the inhibition [19] was 32.7%, the Activity_index [20] was 1.28 and the inhibition [21] was 27.1%. It also gave an inhibition [22] of 5.5%, an inhibition [23] of 42.9% and an inhibition [24] of 35.9%. It also gave an inhibition [25] of 50.1%, an inhibition [26] of -2.9% and an inhibition [27] of 8.9%. For the same compound, the inhibition [28] was -0.2%, the inhibition [29] was 43.1% and the Retention_time [30] was 4.49 min. The inhibition [31] was 49.4%.
